Test results taken from the supplement of paper PMC4862054.

Columns and labels:
Conditions in all cases: incubation time: 72 h
MDA-MB-231 = test: drug sensitivity score (DSS), CellTiter-Blue viability (DSS (AUC-based score)); higher = stronger viability inhibition; extreme values may be limits of the assay
Description: (§1)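 DSRT with the CellTiter-Blue (resazurin reduction) viability readout, fluorescence 560/590 nm, 72 h incubation. Plates were normalised to DMSO and benzethonium chloride controls. DSS is computed from the area under the fitted dose-response curve (5 or 9 concentrations).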

SK-BR-3 = test: as above
Description: as §1

Hs578T = test: as above
Description: as §1

HDQ-P1 = test: as above
Description: as §1

HCC1937 = test: as above
Description: as §1

MFM-223 = test: as above
Description: as §1

DU-4475 = test: as above
Description: as §1

HCC1143 = test: as above
Description: as §1

MDA-MB-468 = test: as above
Description: as §1

CAL-120 = test: as above
Description: as §1

BT-549 = test: as above
Description: as §1

CAL-148 = test: as above
Description: as §1

MDA-MB-453 = test: as above
Description: as §1

BT-474 = test: as above
Description: as §1

CAL-85-1 = test: as above
Description: as §1

CAL-51 = test: as above
Description: as §1

MDA-MB-436 [1] = test: as above
Description: as §1

HCC1599 [2] = test: as above
Description: as §1

MDA-MB-436 [3] = test: normalised viability (% of control), CellTiter-Blue; higher = more viable cells (about 100 = DMSO control)
Outline: (§2)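 Vehicle (100) and a positive kill control (0) anchored the normalisation of each plate, and Z'-factor was used for quality control. Breast cancer cell lines in 20 µl suspension were incubated 72 h over compound in 5 µl medium in 384-well plates, followed by CellTiter-Blue at 560/590 nm. The value is normalised viability at a single listed concentration of the series.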

HCC1599 [4] = test: as above
Outline: as §2

Row | Structure (SMILES) | drug sensitivity score (MDA-MB-231) | drug sensitivity score (SK-BR-3) | drug sensitivity score (Hs578T) | drug sensitivity score (HDQ-P1) | drug sensitivity score (HCC1937) | drug sensitivity score (MFM-223) | drug sensitivity score (DU-4475) | drug sensitivity score (HCC1143) | drug sensitivity score (MDA-MB-468) | drug sensitivity score (CAL-120) | drug sensitivity score (BT-549) | drug sensitivity score (CAL-148) | drug sensitivity score (MDA-MB-453) | drug sensitivity score (BT-474) | drug sensitivity score (CAL-85-1) | drug sensitivity score (CAL-51) | drug sensitivity score (MDA-MB-436 [1]) | drug sensitivity score (HCC1599 [2]) | normalised viability (MDA-MB-436 [3]; 10 nM) | normalised viability (MDA-MB-436 [3]; 1000 nM) | normalised viability (MDA-MB-436 [3]; 10000 nM) | normalised viability (HCC1599 [4]; 10 nM) | normalised viability (HCC1599 [4]; 1000 nM) | normalised viability (HCC1599 [4]; 10000 nM)
1 | CC1=C2C[C@H]3[C@@H](CC=C4C[C@@H](O)CC[C@@]43C)[C@@H]2CC[C@]12O[C@@H]1C[C@H](C)CN[C@H]1[C@H]2C [Cyclopamine] | 0 | 0 | 0 | 0 | 0 | 0 | 0 | 0 | 0 | 0 | 0 | 0 | 0 | 0 | 0 | 0 | 0 | 0 | 110% | 80.5% | 114% | 108% | 112% | 100%
2 | COc1cc2c(cc1O)CC[C@@H]1[C@@H]2CC[C@]2(C)[C@@H](O)CC[C@@H]12 [2-methoxyestradiol] | 11.2 | 2.73 | 9.08 | 5.38 | 9.5 | 0 | 6.57 | 4.05 | 2.79 | 8.63 | 10.5 | 0 | 9.7 | 6.94 | 5.36 | 5.78 | 7.65 | 0 | 104% | 60.5% | 44.6% | 97.3% | 116% | 80.5%
3 | O=NN(CCCl)C(=O)NCCCl [Carmustine] | 0 | 0 | 0 | 0 | 0 | 0 | 0 | 0 | 0 | 0 | 0 | 0 | 0 | 0 | 0 | 0 | 0 | 0 | 91.8% | 105% | 87.5% | 99% | 83.5% | 84.2%
4 | Cc1sc2c(c1C)C(c1ccc(Cl)cc1)=N[C@@H](CC(=O)OC(C)(C)C)c1nnc(C)n1-2 [(+)JQ1] | 12.9 | 8.66 | 11 | 0 | 6.88 | 10.1 | 17.1 | 6.54 | 5.95 | 11.2 | 10.7 | 9.78 | 17.2 | 0 | 10.5 | 3.04 | 0 | 7.63 | 105% | 86.3% | 99.7% | 115% | 58% | 54.6%
5 | CC1(C)CNc2cc(NC(=O)c3cccnc3NCc3ccncc3)ccc21 [Motesanib] | 0 | 0 | 0 | 0 | 0 | 0 | 0 | 0 | 0 | 0 | 0 | 0 | 0 | 0 | 0 | 0 | 0 | 0 | 72.5% | 63% | 73% | 83.8% | 98.1% | 95.9%
